Read-outs that look alike come from different tables or passages of the source.
Assays:
P. aeruginosa ATCC27853 = experiment: Antibacterial assay (MIC); format: cell-based; conditions: Pseudomonas aeruginosa
Experimental: (§1) The minimal inhibitory concentration (MIC) was determined as described previously in cation-adjusted Mueller-Hinton medium according to the standards and guidelines of the Clinical and Laboratory Standards Institute. […] After an overnight incubation at 37 °C, the MIC was read as the lowest compound concentration preventing visible bacterial growth. The strain panel included representative species of nosocomial pathogens, known as “[…]” bacteria. Specifically, the following strains were used: Enterococcus faecium BM 4147-1, Staphylococcus aureus ATCC 29213, Klebsiella pneumoniae ATCC 12657, Acinetobacter baumannii 09987, Pseudomonas aeruginosa ATCC 27853, and Enterobacter aerogenes ATCC 13048. Bacillus subtilis 168, Escherichia coli ATCC 25922, and Mycobacterium smegmatis mc^2 155 ATCC 700084 were used as further reference strains.

S. aureus ATCC29213 = experiment: Antibacterial assay (MIC); format: cell-based; conditions: Staphylococcus aureus
Experimental: as §1

B. subtilis 168 = experiment: Antibacterial assay (MIC); format: cell-based; conditions: Bacillus subtilis
Experimental: as §1

A. baumannii 09987 = experiment: Antibacterial assay (MIC); format: cell-based; conditions: Acinetobacter baumannii
Experimental: as §1

E. coli ATCC25922 = experiment: Antibacterial assay (MIC); format: cell-based; conditions: Escherichia coli
Experimental: as §1

K. pneumoniae ATCC12657 = experiment: Antibacterial assay (MIC); format: cell-based; conditions: Klebsiella pneumoniae
Experimental: as §1

E. faecium BM4147-1 = experiment: Antibacterial assay (MIC); format: cell-based; conditions: Enterococcus faecium, BM41471
Experimental: as §1

[1] = tested on: T. cruzi Tulahuen strain C2C4; experiment: Activity against T. cruzi in L-6 cells (beta-galactosidase/CPRG); format: cell-based, Trypanosoma cruzi; conditions: in vitro, Tulahuen C2C4 in L-6 cells, Table 2 values are means of two independent assays
Experimental: Activity against T. cruzi. Rat skeletal myoblasts (L-6 cells) were seeded in 96-well microtiter plates at 2000 cells/well in 100 μL RPMI 1640 medium with 10% FBS and 2 mM L-glutamine. After 24 h, the media in each well was removed and replaced with 100 μL of fresh media containing 5000 trypomastigote forms of T. cruzi Tulahuen strain C2C4 containing the β-galactosidase (lacZ) gene. After 48 h, the media was removed from the wells again, and this time, replaced by 100 μL fresh medium with or without 1 from 100 to 0.002 μg/mL. After 96 h of incubation, the plates were inspected under an inverted microscope to assess growth and sterility of the controls. Then, the substrate CPRG/Nonidet (50 μL) was added to all wells. A color reaction developed within 2–6 h and could be read photometrically at 540 nm.

Ciona savignyi larvae = experiment: Marine antifouling assay, larval settlement and metamorphosis; conditions: up to the highest concentration tested (100 µg/mL), 5 days
Experimental: (§2) Antifouling activity was assessed via inhibition of settlement and metamorphosis of larvae of the Pacific transparent sea squirt (Ciona savignyi) and the blue mussel (Mytilus galloprovincialis). Methods followed those published by Grant et al.. Adults of both species were collected from coastal populations in the Nelson region of New Zealand, held in a recirculating seawater system (18 ± 1 °C, 33 ± 1 PSU) and fed bulk-cultured Isochorysis galbana until ready to spawn. Larval spawning and rearing procedures followed previously described methods for C. savignyi and M. gallorprovincialis. Competent larvae were diluted in artificial seawater to yield 3 ± 1 larvae/mL. Aliquots of these larval suspensions were added to 12-well tissue culture plates (Corning Co-Star) containing serial dilutions of 1 ranging from 0.1–100 µg/mL. Controls were included, and three replicates were performed in all cases. After 5 days of incubation at 18 ± 1 °C, the number of successfully settled and metamorphosed individuals were counted in each well. Sigmoidal dose-response relationships were explored using R Statistical Software to determine whether inhibition had occurred relative to the controls.

[2] = tested on: Mytilus galloprovincialis larvae; experiment: as above; conditions: up to the highest concentration tested (100 µg/mL), 5 days
Experimental: as §2

[3] = tested on: panel comprising 60 human cancer cell lines; experiment: One dose NCI-60 cell-line cytotoxicity screen; format: cell-based; conditions: single high dose
Description: One dose NCI-60 panel: 1 was selected for the anticancer drug screening service as a part of the Developmental Therapeutics Program at the National Cancer Institute (NCI). In vitro tumor growth inhibitory effects were explored using a standard protocol with a single high dose test against a panel comprising 60 human cancer cell lines. It is noteworthy to mention that we had to remove the results of the NCI-H23 cell line, since NCI informed us that its cell line’s identity was not authenticated during the time frame in which the screening of 1 was conducted.

[4] = tested on: Human Cytomegalovirus (HCMV); format: cell-based; conditions: up to the highest concentration tested (10 µM), HFF cells
[5] = tested on: set of clinically relevant bacteria (ESKAPE panel and one mycobacterial strain); experiment: Antibacterial assay (MIC), whole strain panel; format: cell-based; conditions: highest concentration tested
Experimental: as §1

[6] = tested on: Trypanosoma brucei rhodesiense STIB900; experiment: Activity against Trypanosoma brucei rhodesiense STIB900 (resazurin); conditions: Table 2 values are means of two independent assays
Experimental: Activity against Trypanosoma brucei rhodesiense STIB900. […] Minimum Essential Medium (50 µL) supplemented with 25 mM HEPES, 1 g/L additional glucose, 1% MEM non-essential amino acids (100×), 0.2 mM 2-mercaptoethanol, 1 mM Na-pyruvate and 15% heat inactivated horse serum was added to each well of a 96-well microtiter plate. Serial drug dilutions ranging from 100 to 0.002 μg/mL were prepared. Then, 4 × 10^3 bloodstream forms of T. b. rhodesiense STIB 900 in 50 µL were added to each well and the plate was incubated at 37 °C under a 5% CO2 atmosphere for 70 h. 10 µL of a resazurin solution (resazurin, 12.5 mg in 100 mL double-distilled water) was then added to each well and incubation continued for a further 2–4 h [70]. The plates were read with a Spectramax Gemini XS microplate fluorometer (Molecular Devices Cooperation, Sunnyvale, CA, USA) using an excitation wavelength of 536 nm and an emission wavelength of 588 nm. Data were analyzed using Softmax Pro (Molecular Devices Cooperation, Sunnyvale, CA, USA), which calculated IC50 values by linear regression [71] and 4-parameter logistic regression from the sigmoidal dose inhibition curves.

[7] = tested on: L-6 cells (rat skeletal myoblasts); experiment: In vitro cytotoxicity assay with L-6 cells (resazurin); format: cell-based; conditions: L6, L-6 cells, read-out: IC50 L6
Experimental: In vitro cytotoxicity assay with L-6 cells. Assays were performed in 96-well microtiter plates, each well containing 100 μL of RPMI 1640 medium supplemented with 1% L-glutamine (200 mM) and 10% fetal bovine serum, and 4000 L-6 cells (a primary cell line derived from rat skeletal myoblasts). Serial drug dilutions ranged from 100 to 0.002 μg/mL. After 70 h of incubation, the plates were inspected under an inverted microscope to assure growth of the controls and sterile conditions. 10 μL of resazurin was then added to each well and the plates were incubated for another 2 h. […] Podophyllotoxin (Sigma P4405) was used as control (IC50 0.011 ± 0.005 μM).

SMILES: CC1=C[C@@H](/C=C(\C)CCCc2ccoc2)[C@]2(OC(=O)C(C)=C2O)[C@@H]2[C@@H](C)CC[C@@H]12 [compound 1, Ircinianin]
- MIC (P. aeruginosa ATCC27853): > 32 µg/mL
- MIC (S. aureus ATCC29213): > 32 µg/mL
- MIC (B. subtilis 168): > 32 µg/mL
- MIC (A. baumannii 09987): > 32 µg/mL
- MIC (E. coli ATCC25922): > 32 µg/mL
- MIC (K. pneumoniae ATCC12657): > 32 µg/mL
- MIC (E. faecium BM4147-1): > 32 µg/mL
- IC50 [1]: > 80 µM
- IC50 ([1]; listed as Ircinianin (1)): 191 µM
- Inhibitory effect on larval settlement and metamorphosis (Ciona savignyi larvae): inactive
- Inhibitory effect on larval settlement and metamorphosis [2]: inactive
- Activity in NCI 60 cell-line cytotoxicity screen [3]: no activity
- Inhibition of HCMV infection [4]: no inhibition
- MIC [5]: > 32 µg/mL
- IC50 ([6]; Trypanosoma brucei, RHODESIENSE|STIB900, read-out: IC50 T. brucei rhodesiense, in vitro, STIB900 bloodstream forms): > 80 µM
- IC50 ([6]; read-out: IC50 T. brucei rhodesiense, in vitro, STIB900 bloodstream forms, listed as Ircinianin (1)): 82.8 µM
- IC50 ([7]; 70 h incubation): 150 µM
- IC50 ([7]; single cell line assays (Table S7)): 59.5 µg/mL

Source: article PMC9410537, “Discovery of Ircinianin Lactones B and C—Two New Cyclic Sesterterpenes from the Marine Sponge Ircinia wistarii” (Marine Drugs, 2022)
